Values of other authors as cited in US10300299B2, “Advanced methods and systems for treating cell proliferation disorders” (priority 2008, dated 2019).
Each block holds one compound with its values, some of them ahead of it.

Key:
[1] = not given; remark: listed apart in the source
rapidly dividing tissue = conditions: in vivo
[2] = not given; remark: listed apart in the source

water solubility: water soluble
excretion ([1]; in excess): excreted by gloinerular filtration
Compound: Vitamin B12
toxicity ([1]; in vivo): no known toxicity

uptake in rapidly dividing tissue (rapidly dividing tissue): increased uptake
Compound: C/C1=C2/[N-][C@H]([C@H](CC(N)=O)[C@@]2(C)CCC(=O)NC[C@@H](C)OP(=O)([O-])O[C@H]2[C@@H](O)[C@@H](n3cnc4cc(C)c(C)cc43)O[C@@H]2CO)[C@]2(C)N=C(/C(C)=C3N=C(/C=C4N=C1[C@@H](CCC(N)=O)C\4(C)C)[C@@H](CCC(N)=O)[C@]\3(C)CC(N)=O)[C@@H](CCC(N)=O)[C@]2(C)CC(N)=O.[CH3-].[Co+3] [methylcobalamin]

duration of skin photosensitivity [2]: approximately 2 weeks
Compound: Oc1cccc(-c2c3nc(c(-c4cccc(O)c4)c4ccc([nH]4)c(-c4cccc(O)c4)c4nc(c(-c5cccc(O)c5)c5ccc2[nH]5)CC4)C=C3)c1 [Foscan, Tetra (m-hydroxyphenyl) chlorin]
Length of photosensitization ([2]; Table 3, known photosensitizers): 2 weeks

Compound: Cobalt-57-cyanocobalamin
uptake in rapidly dividing tissue (rapidly dividing tissue): increased uptake
